Assay results from patent publication US20140154389A1, “PRODUCTION OF CHEESE WITH S. THERMOPHILUS” (DuPont Nutrition BioSciences ApS, priority 2011, published 2014).

Test system: urease enzyme of ur(+) S. thermophilus
Experiment: Floating curd experiment in test tubes (Example 3)
Parameters: species or system Streptococcus thermophilus
Conditions: milk fermented at 35° C. to pH 4.65, sample heated at about 66° C. for 2 x 10 minutes; flurofamide added to the blend of Lactococci and ur(+) S. thermophilus
Experimental: Four experiments were conducted in which milk was treated with various bacteria. In experiment 1, only Lactococci bacteria were added. In experiment 2, a blend of Lactococci bacteria and ur(+) S. thermophilus bacteria were added. In experiment 3, a blend of Lactococci bacteria, ur(+) S. thermophilus bacteria, and the urease inhibitor flurofamide were added. In experiment 4, only ur(+) S. thermophilus bacteria were added.
In each experiment, the milk was fermented with the bacteria at 35° C. until the cheese reached a pH of 4.65. A sample of the cheese was placed into a test tube, which was heated at about 66° C. for about 10 minutes. After 10 minutes of heating, a small pipette or thin wire was used to agitate the sample. The samples were held at about 66° C. for another ten minutes, at which time the photograph of the test tubes depicted in FIG. 3, was taken.
Test tube 4 is a positive control that contains ur(+) S. thermophilus, which has urease enzymes that can hydrolyze urea in milk.

floating curd in test tube: no floating curd
Structure (SMILES): NP(N)(=O)NC(=O)c1ccc(F)cc1 [flurofamide]
